1 compound from article PMC9032718, “Eltrombopag as an Allosteric Inhibitor of the METTL3-14 Complex Affecting the m^6A Methylation of RNA in Acute Myeloid Leukemia Cells” (Pharmaceuticals, 2022) can be followed below.

The target in one assay is T1, G9a (Homo sapiens, UniProt Q96KQ7).
T1 construct: purchased Reaction Biology (Malvern, PA, USA), contract assay
T1 sequence (Q96KQ7 1-1210): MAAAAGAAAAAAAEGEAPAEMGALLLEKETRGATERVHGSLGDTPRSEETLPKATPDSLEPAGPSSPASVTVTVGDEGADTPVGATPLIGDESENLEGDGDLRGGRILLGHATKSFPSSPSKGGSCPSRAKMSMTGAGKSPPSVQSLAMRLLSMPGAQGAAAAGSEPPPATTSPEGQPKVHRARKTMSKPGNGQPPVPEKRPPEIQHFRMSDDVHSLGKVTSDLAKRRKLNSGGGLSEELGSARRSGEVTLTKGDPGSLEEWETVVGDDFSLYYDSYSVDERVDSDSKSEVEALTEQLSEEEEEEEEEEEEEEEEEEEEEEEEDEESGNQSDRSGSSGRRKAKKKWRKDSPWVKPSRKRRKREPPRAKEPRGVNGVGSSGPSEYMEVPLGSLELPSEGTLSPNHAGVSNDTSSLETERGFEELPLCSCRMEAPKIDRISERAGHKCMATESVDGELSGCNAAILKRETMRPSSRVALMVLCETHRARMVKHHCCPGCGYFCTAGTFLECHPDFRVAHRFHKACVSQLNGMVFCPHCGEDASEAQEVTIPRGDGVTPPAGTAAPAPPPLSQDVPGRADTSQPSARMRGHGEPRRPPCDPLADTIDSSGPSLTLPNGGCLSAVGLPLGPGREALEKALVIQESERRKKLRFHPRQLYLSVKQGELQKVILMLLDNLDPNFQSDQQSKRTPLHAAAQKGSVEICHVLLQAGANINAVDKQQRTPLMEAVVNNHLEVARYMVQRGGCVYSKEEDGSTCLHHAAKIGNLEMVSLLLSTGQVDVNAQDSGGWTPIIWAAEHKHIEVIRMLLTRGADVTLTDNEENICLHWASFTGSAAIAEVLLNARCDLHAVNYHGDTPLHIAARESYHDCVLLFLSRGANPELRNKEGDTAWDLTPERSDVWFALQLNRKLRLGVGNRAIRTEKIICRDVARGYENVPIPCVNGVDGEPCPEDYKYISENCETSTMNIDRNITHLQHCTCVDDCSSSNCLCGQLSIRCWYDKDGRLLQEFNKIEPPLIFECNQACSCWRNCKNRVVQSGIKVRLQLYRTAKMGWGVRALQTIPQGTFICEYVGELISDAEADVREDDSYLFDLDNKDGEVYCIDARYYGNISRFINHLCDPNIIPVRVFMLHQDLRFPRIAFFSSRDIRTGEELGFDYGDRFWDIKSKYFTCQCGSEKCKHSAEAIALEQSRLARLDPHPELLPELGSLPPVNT
As to the kind of experiment: Methyltransferase selectivity panel (MT HotSpot radioisotope assay), G9a. It counts as biochemical. Conditions: 10 μM eltrombopag. The protocol:
(§1) The selectivity profile of eltrombopag was investigated by testing the level of inhibition in a methyltransferase panel. The inhibition of 7 […] methyltransferase was tested at Reaction Biology (Malvern, PA, USA) using a gold standard radioisotope-based MT assay (MT HotSpot^TM) with 10 μM of eltrombopag in duplicate.

A further assay concerns the target T2, PRDM9 (Homo sapiens, UniProt Q9NQV7).
T2 construct: purchased Reaction Biology (Malvern, PA, USA), contract assay
Put plainly: Methyltransferase selectivity panel (MT HotSpot radioisotope assay), PRDM9. In kind it is biochemical. Conditions: 10 μM eltrombopag. The procedure: as §1

Another assay has as its target T3, PRMT1 (Homo sapiens, UniProt Q99873).
T3 construct: purchased Reaction Biology (Malvern, PA, USA), contract assay
As to the kind of experiment: Methyltransferase selectivity panel (MT HotSpot radioisotope assay), PRMT1. In kind it is biochemical. Conditions: 10 μM eltrombopag. An excerpt: The selectivity profile of eltrombopag was investigated by testing the level of inhibition in a methyltransferase panel.

The next assay addresses T4, SETD2 (Homo sapiens, UniProt Q9BYW2).
T4 construct: purchased Reaction Biology (Malvern, PA, USA), contract assay
As to the kind of experiment: Methyltransferase selectivity panel (MT HotSpot radioisotope assay), SETD2. In kind it is biochemical. Conditions: 10 μM eltrombopag. The protocol: as §1

In the next assay the target is T5, SMYD3 (Homo sapiens, UniProt Q9H7B4).
T5 construct: purchased Reaction Biology (Malvern, PA, USA), contract assay
T5 sequence (Q9H7B4 1-428): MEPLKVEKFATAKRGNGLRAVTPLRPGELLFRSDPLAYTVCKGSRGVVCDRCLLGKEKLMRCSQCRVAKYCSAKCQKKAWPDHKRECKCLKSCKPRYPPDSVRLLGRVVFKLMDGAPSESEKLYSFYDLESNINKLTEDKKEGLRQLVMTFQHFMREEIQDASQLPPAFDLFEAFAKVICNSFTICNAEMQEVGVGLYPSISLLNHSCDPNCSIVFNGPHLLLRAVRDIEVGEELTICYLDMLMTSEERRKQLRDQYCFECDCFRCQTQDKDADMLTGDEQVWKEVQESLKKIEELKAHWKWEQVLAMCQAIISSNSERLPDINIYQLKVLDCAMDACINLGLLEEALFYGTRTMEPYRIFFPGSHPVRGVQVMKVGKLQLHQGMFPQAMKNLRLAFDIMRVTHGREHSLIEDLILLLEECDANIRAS
As to the kind of experiment: Methyltransferase selectivity panel (MT HotSpot radioisotope assay), SMYD3. In kind it is biochemical. Conditions: 10 μM eltrombopag, SMYD3. The procedure:
as §1

Assay [1] deals with T6, truncated METTL3-14 complex (Homo sapiens, UniProt Q86U44).
T6 construct: MTase domain of human METTL3 (residues 369 to 580); METTL14 (residues 106 to 396); 10x His (thrombin-cleavable) (cleaved yes); made in house; host or cells: Trichoplusia ni (Hi5) cells co-infected with two baculoviruses
T6 sequence (Q86U44 369-580): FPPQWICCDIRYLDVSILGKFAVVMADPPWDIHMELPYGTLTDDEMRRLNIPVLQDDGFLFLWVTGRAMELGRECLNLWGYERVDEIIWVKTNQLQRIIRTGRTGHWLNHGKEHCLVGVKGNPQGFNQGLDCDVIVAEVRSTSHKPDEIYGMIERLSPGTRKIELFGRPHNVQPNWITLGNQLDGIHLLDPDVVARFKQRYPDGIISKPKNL
T6 sequence (Q9HCE5 106-396 partner limits assumed): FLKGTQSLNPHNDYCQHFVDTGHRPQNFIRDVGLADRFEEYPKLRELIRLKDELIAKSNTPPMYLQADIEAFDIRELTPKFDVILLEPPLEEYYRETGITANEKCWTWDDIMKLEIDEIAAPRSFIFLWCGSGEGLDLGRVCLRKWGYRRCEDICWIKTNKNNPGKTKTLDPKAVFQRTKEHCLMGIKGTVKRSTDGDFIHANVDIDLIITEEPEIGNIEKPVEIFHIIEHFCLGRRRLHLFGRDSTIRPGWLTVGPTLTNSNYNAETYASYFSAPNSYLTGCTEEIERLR
As to the kind of experiment: Bioluminescence enzyme assay, truncated form of METTL3-14 (methyltransferase domain). It counts as biochemical. The protocol: An enzymatic bioluminescence assay was established to identify the METTL3-14 inhibitor through screening. […] METTL3-14 activity was assessed by measuring the luminescence using a Victor multilabel reader (PerkinElmer, Waltham, MA, USA). The IC50 values were calculated by a nonlinear regression analysis using OriginPro 9.1 software (OriginLab).
To confirm the mechanism of action of eltrombopag in the METTL3-14 complex, 30 nM METTL3-14 and serially diluted eltrombopag were reacted with various concentrations of SAM or RNA substrate and saturating concentrations of the other substrate (3 μM SAM or 2 μM RNA substrate) for 20 min. To evaluate the inhibitory activity in a single form of METTL3 and METTL14, 1 μM of METTL3 and 300 nM of METTL14 were incubated with 1 μM of SAM, 500 nM of RNA substrates, and serially diluted eltrombopag for 5 h. To measure the inhibitory activity in the truncated form of the METTL3-14 complex, 1 μM of the truncated METTL3-14 complex was reacted with 1 μM of SAM, 500 nM of RNA substrates, and serially diluted eltrombopag for 5 h.

The test system of a further assay is THP-1 cells. Put plainly: Anti-proliferative assay (EZ-cytox), THP-1. In kind it is cell-based. Conditions: Homo sapiens, THP-1, 72 h. The protocol: The MOLM-13, MOLM-14, HL60, MV4-11, and THP-1 cells were seeded in white 96-well clear bottomed plates with 100 μL of medium (5000 cells/well). The plated cells were treated with serially diluted compounds and incubated for 72 h at 37 °C. After incubation, 10 μL of EZ-cytox kit reagent from the EZ-cytox cell viability assay kit (DaeiLab, Seoul, Korea) was added to each well and then incubated for 3 h at 37 °C. The absorbance of metabolically active cells was measured at a wavelength of 450 nm using a Victor multilabel reader (PerkinElmer). The GI50 values were calculated by nonlinear regression analysis using OriginPro 9.1 software (OriginLab).

Structures are written as SMILES.

T3 sequence (Q99873 whole entry): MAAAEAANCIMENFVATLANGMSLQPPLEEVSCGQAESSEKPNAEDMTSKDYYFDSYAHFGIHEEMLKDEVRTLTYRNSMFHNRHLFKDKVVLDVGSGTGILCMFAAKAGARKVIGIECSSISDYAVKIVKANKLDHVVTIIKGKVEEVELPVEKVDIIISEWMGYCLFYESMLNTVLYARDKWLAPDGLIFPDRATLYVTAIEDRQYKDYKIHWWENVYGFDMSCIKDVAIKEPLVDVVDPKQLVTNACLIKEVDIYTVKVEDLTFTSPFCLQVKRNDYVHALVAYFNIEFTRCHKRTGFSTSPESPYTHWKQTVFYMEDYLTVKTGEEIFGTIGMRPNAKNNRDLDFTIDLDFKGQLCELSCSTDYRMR
T2 sequence (Q9NQV7 whole entry): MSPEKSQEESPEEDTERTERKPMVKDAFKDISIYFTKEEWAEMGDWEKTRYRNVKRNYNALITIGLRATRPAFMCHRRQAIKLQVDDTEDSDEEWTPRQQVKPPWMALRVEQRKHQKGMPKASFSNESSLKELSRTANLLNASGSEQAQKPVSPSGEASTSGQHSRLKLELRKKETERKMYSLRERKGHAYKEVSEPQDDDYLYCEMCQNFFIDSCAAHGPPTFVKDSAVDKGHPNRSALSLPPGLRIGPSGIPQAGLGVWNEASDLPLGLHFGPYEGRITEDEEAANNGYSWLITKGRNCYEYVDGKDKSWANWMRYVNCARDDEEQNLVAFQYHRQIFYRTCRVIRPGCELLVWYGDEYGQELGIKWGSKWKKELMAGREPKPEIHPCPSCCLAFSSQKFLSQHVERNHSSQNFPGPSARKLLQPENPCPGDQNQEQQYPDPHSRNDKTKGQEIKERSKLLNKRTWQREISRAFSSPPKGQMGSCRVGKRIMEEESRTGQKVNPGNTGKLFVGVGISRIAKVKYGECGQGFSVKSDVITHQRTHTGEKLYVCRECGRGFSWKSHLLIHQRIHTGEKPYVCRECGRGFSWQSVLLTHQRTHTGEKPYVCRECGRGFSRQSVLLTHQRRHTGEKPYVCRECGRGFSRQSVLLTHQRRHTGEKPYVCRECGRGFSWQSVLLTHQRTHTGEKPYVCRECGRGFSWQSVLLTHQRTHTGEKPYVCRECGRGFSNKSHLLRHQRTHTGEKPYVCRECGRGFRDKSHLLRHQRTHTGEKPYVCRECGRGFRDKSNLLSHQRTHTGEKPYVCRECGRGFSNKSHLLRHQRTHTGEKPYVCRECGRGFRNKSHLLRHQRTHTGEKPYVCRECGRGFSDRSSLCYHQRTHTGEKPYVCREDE
T4 sequence (Q9BYW2 whole entry): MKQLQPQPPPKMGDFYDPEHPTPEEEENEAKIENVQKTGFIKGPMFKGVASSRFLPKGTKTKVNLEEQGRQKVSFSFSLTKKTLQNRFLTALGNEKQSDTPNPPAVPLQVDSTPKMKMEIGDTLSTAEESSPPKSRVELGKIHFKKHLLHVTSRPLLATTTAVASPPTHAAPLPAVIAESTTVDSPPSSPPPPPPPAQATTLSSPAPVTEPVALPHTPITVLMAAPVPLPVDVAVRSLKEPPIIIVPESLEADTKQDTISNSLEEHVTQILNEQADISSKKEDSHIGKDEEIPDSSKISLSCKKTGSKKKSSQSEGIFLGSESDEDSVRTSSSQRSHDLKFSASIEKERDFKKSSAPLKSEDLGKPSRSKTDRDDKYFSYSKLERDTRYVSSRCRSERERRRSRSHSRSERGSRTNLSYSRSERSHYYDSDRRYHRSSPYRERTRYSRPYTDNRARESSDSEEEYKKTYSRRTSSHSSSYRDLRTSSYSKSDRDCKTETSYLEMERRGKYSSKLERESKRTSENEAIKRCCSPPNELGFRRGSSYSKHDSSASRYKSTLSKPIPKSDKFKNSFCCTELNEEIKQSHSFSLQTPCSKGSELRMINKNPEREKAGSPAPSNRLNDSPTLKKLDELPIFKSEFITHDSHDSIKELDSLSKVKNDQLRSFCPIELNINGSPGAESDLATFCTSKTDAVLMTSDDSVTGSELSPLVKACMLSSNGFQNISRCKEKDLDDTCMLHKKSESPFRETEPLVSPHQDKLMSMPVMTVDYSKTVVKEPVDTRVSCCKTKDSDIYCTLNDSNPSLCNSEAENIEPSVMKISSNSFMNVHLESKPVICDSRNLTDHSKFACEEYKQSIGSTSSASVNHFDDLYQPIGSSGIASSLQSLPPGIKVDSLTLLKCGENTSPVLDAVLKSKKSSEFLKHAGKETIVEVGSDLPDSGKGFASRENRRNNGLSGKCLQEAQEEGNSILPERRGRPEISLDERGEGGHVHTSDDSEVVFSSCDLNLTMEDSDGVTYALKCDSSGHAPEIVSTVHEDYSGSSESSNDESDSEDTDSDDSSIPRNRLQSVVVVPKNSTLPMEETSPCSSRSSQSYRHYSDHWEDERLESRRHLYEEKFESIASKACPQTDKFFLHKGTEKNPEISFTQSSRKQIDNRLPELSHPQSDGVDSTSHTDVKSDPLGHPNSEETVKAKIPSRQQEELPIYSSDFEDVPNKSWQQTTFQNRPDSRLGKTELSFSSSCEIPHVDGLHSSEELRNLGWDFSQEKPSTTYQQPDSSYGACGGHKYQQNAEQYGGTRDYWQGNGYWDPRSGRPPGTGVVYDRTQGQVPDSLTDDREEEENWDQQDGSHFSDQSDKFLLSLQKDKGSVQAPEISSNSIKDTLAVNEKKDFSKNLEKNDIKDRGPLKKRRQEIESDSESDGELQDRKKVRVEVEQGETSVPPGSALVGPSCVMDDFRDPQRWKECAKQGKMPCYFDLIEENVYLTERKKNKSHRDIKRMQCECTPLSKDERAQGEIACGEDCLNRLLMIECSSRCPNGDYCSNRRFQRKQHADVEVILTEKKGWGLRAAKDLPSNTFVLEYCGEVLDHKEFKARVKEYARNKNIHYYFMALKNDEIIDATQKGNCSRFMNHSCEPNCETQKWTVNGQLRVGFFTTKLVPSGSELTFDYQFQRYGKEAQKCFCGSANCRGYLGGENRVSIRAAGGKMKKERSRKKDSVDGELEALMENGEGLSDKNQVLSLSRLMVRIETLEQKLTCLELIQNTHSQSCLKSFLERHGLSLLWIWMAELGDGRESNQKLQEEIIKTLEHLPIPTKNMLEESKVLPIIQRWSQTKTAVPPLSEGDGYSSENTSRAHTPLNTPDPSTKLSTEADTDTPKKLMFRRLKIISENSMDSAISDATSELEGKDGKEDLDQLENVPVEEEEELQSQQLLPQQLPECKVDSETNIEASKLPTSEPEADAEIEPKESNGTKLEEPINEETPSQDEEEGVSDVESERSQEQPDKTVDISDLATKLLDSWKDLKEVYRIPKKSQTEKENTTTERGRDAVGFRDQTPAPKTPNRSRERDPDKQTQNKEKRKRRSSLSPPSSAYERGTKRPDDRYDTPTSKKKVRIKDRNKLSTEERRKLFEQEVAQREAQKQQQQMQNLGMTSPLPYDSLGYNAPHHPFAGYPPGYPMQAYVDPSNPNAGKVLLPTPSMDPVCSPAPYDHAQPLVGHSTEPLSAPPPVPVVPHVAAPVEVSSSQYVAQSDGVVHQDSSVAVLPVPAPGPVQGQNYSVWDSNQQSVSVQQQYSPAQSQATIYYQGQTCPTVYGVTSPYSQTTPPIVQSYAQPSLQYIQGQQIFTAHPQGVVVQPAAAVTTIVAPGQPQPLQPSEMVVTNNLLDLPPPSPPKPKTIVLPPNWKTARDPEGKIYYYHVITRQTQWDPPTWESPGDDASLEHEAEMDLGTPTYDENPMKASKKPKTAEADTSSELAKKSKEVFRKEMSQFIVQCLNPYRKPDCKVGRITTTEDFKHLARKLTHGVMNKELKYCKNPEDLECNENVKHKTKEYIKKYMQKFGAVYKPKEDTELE

As to `CC1=NN(c2ccc(C)c(C)c2)C(=O)/C1=N\Nc1cccc(-c2cccc(C(=O)O)c2)c1O` [Eltrombopag], the remaining activity (as a rule, the signal under treatment as a percentage of the control signal) at 10 µM on G9a stood at 99 ± 3.3%; on PRDM9 it was 130 ± 4%; on PRMT1, 96.1 ± 3.9%; at SETD2 it was 97.3 ± 4.1%; on SMYD3, 98.7 ± 5.7%. Besides, the “fold change of IC50, truncated versus full length METTL3-14” value in assay [1] came to 3.5 fold. In assay [1] (1 μM truncated complex, 1 μM SAM, 500 nM RNA, 5 h), the half-inhibitory concentration (IC50) (as a rule, the concentration that inhibits the measured activity by half) is 12 µM. Moreover, it took 22.3 ± 0.4 µM to inhibit growth with THP-1 cells by half (GI50).
